These results are taken from patent US10597368B2, “Syringolin analogues and methods of making and using same” (BROWN UNIVERSITY, priority 2015, dated 2020).

For orientation: GI50 means the concentration at which growth is held to half of that of the control. Low readings indicate more potent growth inhibition, high ones less potent growth inhibition.

Assay [1] concerns HL-60. Put plainly: NCI dose-dependent growth inhibition, HL-60. The format is cell-based. Conditions: Homo sapiens; HL-60, 48-h exposure. An excerpt:
(§1) The three compounds were particularly active against leukemia cell lines. […] Without wishing to be limited by any theory, such differences in biochemical and biological patterns may be explained by differences in the cell permeabilities or stabilities of the two compounds. […] Data provided by the National Cancer Institute (NCI): […] The optical density of the test well after a 48-h period of exposure to test drug is T, the optical density at time zero is T0, and the control optical density is C. The “50” is called the […] parameter that can have values from +100 to -100.

In assay [2] the test system is MOLT-4. Put plainly: NCI dose-dependent growth inhibition, MOLT-4. The format is cell-based. Conditions: Homo sapiens; MOLT-4, 48-h exposure.
From the text: as §1

In assay [3] the test system is RPMI-8226. Put plainly: NCI dose-dependent growth inhibition, RPMI-8226. The format is cell-based. Conditions: Homo sapiens; RPMI-8226, 48-h exposure.
From the text: as §1

The test system of assay [4] is SR. Put plainly: NCI dose-dependent growth inhibition, SR. The format is cell-based. The note with it: Homo sapiens, 48-h exposure.
From the text: as §1

Assay [5] deals with K-562. Put plainly: NCI dose-dependent growth inhibition, K-562. The format is cell-based. The note with it: Homo sapiens, K562; K-562, 48-h exposure.
From the text: as §1

The target of assay [6] is T1, human 20S proteasome (hs20S), chymotrypsin-like β5-subunits (Homo sapiens, UniProt P20618+P28074).
T1 construct: purchased R&D
Put plainly: In vitro 20S peptidase inhibition kinetics, chymotrypsin-like activity (Suc-LLVY-AMC). The note with it: second-order rate constant, Suc-LLVY-AMC substrate, 37° C. The format is biochemical. As to the method: In vitro 20S peptidase inhibition assays were recorded in a 384-well plate at a SpectraMax M5 (Molecular devises) plate-reader. Therefore, 5 nM human 20S (R&D) was incubated in buffer R (50 mM HEPES-KOH, pH 7.5, 0.5 mM EDTA) with 100 μM of the fluorogenic peptide substrates Suc-LLVY-AMC or Boc-LRR-AMC. Reactions were started by adding various amounts of inhibitors (5 nM to 500 μM) to a final volume of 30 μL and peptide hydrolysis was continuously monitored for 90 min by changes in fluorescence (excitation 380 nm; emission 440 nm) at 37° C. The kobs values were determined by fitting the raw data to equation (1). The slopes of the plots of kobsversus I gave an apparent value of kobs/I, also referred to as kinact/Ki for an irreversible inhibitor, which was then corrected by equation (2) to compensate for the effect of substrate competition, where app is the apparent value at different inhibitor concentrations.
Using purified human 20S proteasome (hs20S) and a fluorogenic substrate (Suc-LLVY-AMC), in vitro assays were performed to systematically assess proteasome inhibition by the syringolin analogues. The choice of substrate was based on the fact that it is preferentially acted upon by the chymotrypsin-like β5-subunits of the proteasome due to the aromatic tyrosine residue at the scissile bond (i.e., P1 position).
From measurements of the rates of hydrolysis of the fluorogenic substrate by the proteasome in the presence of increasing concentrations of each inhibitor, second-order rate constants kin/Ki (M^−1 s^−1) were determined (Table 1), which reflect both the affinity of the non-covalent binding (Ki) and the rate of the chemical reaction with the enzyme (kin). All of the syringolin analogues were capable in inhibiting the chymotrypsin-like activity of hs20S. Without wishing to be limited by any theory, consistent with the design predictions, the most significant contributor to the apparent second-order rate constants of the compounds was their binding affinity (Ki) rather than the rates of inhibition.
In vitro 20S peptidase inhibition assays were recorded in a 384-well plate at a SpectraMax M5 (Molecular Devices) plate-reader. Therefore, 5 nM human 20S (R&D) was incubated in buffer R (50 mM HEPEs-KOH, pH 7.5, 0.5 mM EDTA) with 100 μM of the fluorogenic peptide substrate Suc-LLVY-AMC. Reactions were started by adding various amounts of inhibitors 5 nM to 500 μM) to a final volume of 30 μL and peptide hydrolysis was continuously monitored for 90 minutes by changes in fluorescence (excitation 380 nm; emission 440 nm) at 37 degrees Celsius. The kobs values were determined by fitting the raw data to equation 1. The slopes of the plots of kobs versus I gave an apparent value of kob/I, also referred to as kinact/Ki for an irreversible inhibitor, which was then corrected by equation 2 to compensate for the effect of substrate competition, where app is the apparent value at different inhibitor concentrations.

The test system of assay [7] is 60 different cancer cell lines. Put plainly: NCI single-dose growth assay with 60 cancer cell lines. The format is cell-based. The note with it: 10 μM, average over the panel of cell lines. As to the method:
FIG. 6 illustrates the in vitro inhibition results for compound 1, while FIG. 7 illustrates the in vitro inhibition results for compound 13. FIG. 8 illustrates the in vitro inhibition results for compound 14, while FIG. 9 illustrates the in vitro inhibition results for compound 15. FIG. 10 illustrates the in vitro inhibition results for compound 16. […] Specifically, cell lines incubated in media with 10 μM of compound 15 grew at an average of 30% of those incubated in media without compound. The mean growth of the cell lines in media with the same concentration of compound 16 was approximately 71% of those in negative control experiments.

Assay [8] concerns leukemia cell lines. Put plainly: NCI dose-dependent growth inhibition, leukemia cell lines overall. The format is cell-based. Conditions: as much as, fold more potent.
From the text: as §1

On to `COC(=O)[C@@H](NC(=O)N[C@H](C(=O)N[C@H]1CCCCNC(=O)/C=C/[C@H](C(C)C)NC1=O)C(C)C)C(C)C` [Compound 1, Syringolin B Methyl Ester, reference compound], for which the GI50 in assay [1] was found to be 5.41 µM; in assay [2], 4.73 µM; in assay [3], 3.97 µM; in assay [4], 5.13 µM; in assay [5], 6.12 µM.

Take `COC(=O)[C@@H](NC(=O)N[C@@H](Cc1ccccc1)C(=O)N[C@H]1CCCCNC(=O)/C=C/[C@H](Cc2ccccc2)NC1=O)C(C)C` [Compound 15, (S)-methyl 2-(3-((S)-1-(((5S,8S,E)-5-benzyl-2,7-dioxo-1,6-diazacyclododec-3-en-8-yl)amino)-1-oxo-3-phenylpropan-2-yl)ureido)-3-methylbutanoate]: the “hs20S kin/Ki” value in assay [6] is 4,199 M^−1s^−1. For the same molecule, the concentration for 50% growth inhibition (GI50) turned out to be 4.34 µM in assay [1]; 3.32 µM in assay [2]; 2.72 µM in assay [3]; 2.78 µM in assay [4]; 14.6 µM in assay [5]. Further, the “mean growth of cell lines relative to media without compound” value in assay [7] is given as 30%.

With `COC(=O)[C@@H](NC(=O)N[C@@H](Cc1ccccc1)C(=O)N[C@H]1CCCCNC(=O)/C=C/[C@H](Cc2c[nH]c3ccccc23)NC1=O)C(C)C` [Compound 16], the GI50 was found to be 1.29 µM in assay [1]; 0.599 µM in assay [2]; 0.343 µM in assay [3]; 0.453 µM in assay [4]; 2.94 µM in assay [5]. For the same molecule, the “mean growth of cell lines relative to media without compound” value in assay [7] is “approximately 71%”. Moreover, in assay [8], the “potency relative to syringolin B methyl ester (1) against the leukemia cell lines” value was at most 11.5 fold.
